According to patent publication US8003812B2, “C10 cyclopentyl ester substituted taxanes” (priority 2004, dated 2011):
Where two headings read alike, the source gives them in different places.

Experiments:
[1] = tested on: HCT 116 human colon carcinoma; assay: In vitro cytotoxicity, cell colony formation assay, HCT116; assay type: cell-based
Experimental: (§1) The cells were incubated in a CO2 incubator at 37° C. for 5 h for attachment to the bottom of Petri dishes. The compound of the present invention was made up fresh in medium at ten times the final concentration, and then 0.3 mL of this stock solution was added to the 2.7 mL of medium in the dish. The cells were then incubated with drugs for 72 h at 37° C. At the end of incubation the drug-containing media were decanted, the dishes were rinsed with 4 mL of Hank's Balance Salt Solution (HBSS), 5 mL of fresh medium was added, and the dishes were returned to the incubator for colony formation. The cell colonies were counted using a colony counter after incubation for 7 days. Cell survival was calculated and the values of IC50 (the drug concentration producing 50% inhibition of colony formation) were determined for each tested compound.

[2] = tested on: VM46 (resistant variant of human colon carcinoma HCT 116); assay: In vitro cytotoxicity, cell colony formation assay, VM46; assay type: cell-based
Experimental: as §1
Identical assessments were carried out using VM46 (resistant variant of human colon carcinoma HCT 116 obtained from Dr. Li-Xi, M.D, Ph.D., California Pacific Medical Center, CA).

Sprague-Dawley rats [3] = assay: In vivo toxicity assessment in rats, intravenous; conditions: IV; for Rat tox score IV: summary score
Experimental: (§2) Toxicity was assessed in 250-300g Sprague-Dawley rats and three rats were used per dose group. Three dose groups of the test compound, (i.e., 3 mg/kg, 9 mg/kg and 12 mg/kg for intravenous administration; 15 mg/kg, 30 mg/kg and 40 mg/kg) and 1 control group constituted a study. Animals were observed and clinical chemistry data collected at days 4 and 10. Rats were euthanized on day 11 and the nerves were excised and fixed upon euthanization for further examination.
(§3) Each rat is scored as described below and a final toxicity score that incorporates all parameters is assigned. A dead rat is assigned a score of zero. Most of the parameters contribute a positive value towards a total possible score of 130. For body weight, white blood cell, and platelet decreases, recovery is considered. […] The total score is divided by 13 to put it on a scale from 0 to 10.

Sprague-Dawley rats [4] = assay: In vivo toxicity assessment in rats, oral; set-up: species or system rat; conditions: for Rat tox score PO: summary score
Experimental: as §2, §3

[5] = tested on: DLD-1 (resistant human colon carcinoma); assay: In vitro cytotoxicity, MTT assay, DLD-1; assay type: cell-based
[6] = tested on: human pancreatic tumor xenograft Panc-1; conditions: single dose IV
Text: (§4) [formula] where TTE is expressed in days, endpoint volume is in mm^3, b is the intercept, and m is the slope of the line obtained by linear regression of a log-transformed tumor growth data set. The data set is comprised of the first observation that exceeded the study endpoint volume and the three consecutive observations that immediately preceded the attainment of the endpoint volume. […] Animals classified as TR (treatment-related) deaths or NTRM (non-treatment-related metastasis) deaths are assigned a TTE value equal to the day of death. Animals classified as NTR (non-treatment-related) deaths are excluded from TTE calculations. Treatment efficacy was determined from tumor growth delay (TGD), which is defined as the increase in the median TTE for a treatment group compared to the control group: TGD=T−C, expressed in days, or as a percentage of the median TTE of the control group:
(§5) Treatment may cause partial regression (PR) or complete regression (CR) of the tumor in an animal. In a PR response, the tumor volume is 50% or less of its Day 1 volume for three consecutive measurements during the course of the study, and equal to or greater than 13.5 mm^3 for one or more of these three measurements. In a CR response, the tumor volume is less than 13.5 mm^3 for three consecutive measurements during the course of the study. An animal with a CR response at the termination of a study is additionally classified as a long-term tumor-free survivor (LTTFS).
With respect to toxicity, the animals were weighed daily on Days 1-5, then twice weekly until the completion of the study. The mice were examined frequently for overt signs of any adverse, drug-related side effects. […] The log rank test was employed to analyze the significance of the difference between the TTE values of a drug-treated group and the vehicle-treated control group. The log rank test analyzes the data for all animals except the NTR deaths. The two-tailed statistical analyses were conducted at P=0.05. The group median tumor growth curves show the median tumor volume (MTV) as a function of time. When an animal exited the study due to tumor size or TR death, the final tumor volume recorded for the animal was included with the data used to calculate the median volume at subsequent time points. If more than one death occurred in a treatment group, the tumor growth curve for that group was truncated at the time of the second death.
Human Panc-1 pancreatic carcinomas were maintained in athymic nude mice. A tumor fragment (1 mm^3) was implanted s.c. into the right flank of each test mouse. Tumors were monitored twice weekly and then daily as their size approached 200-400 mm^3 with a mean of 250-300 mm^3. On Day 1 of the study, the animals were sorted into groups of six mice, with tumor sizes of 171.5-486.0 mm^3 and group mean tumor sizes of 269.7-275.0 mm^3. Mice were sorted into groups containing six mice each, and treated according to the protocol in Tables 2A and 2B. All treatments were administered intravenously. Control Group 1 mice received the ethanol 5% and Liposyn II 95% vehicle, once on Day 1 (qd×1). […] Dosing volumes were 0.5 ml/20 g body weight for qd×1 dosing regimens and 0.3 mL/20 g body weight for the qod×5 or q4d×4 dosing schedules. Dosing volumes were scaled to the body weight of each animal. The vehicle was given to Group 1 mice in a single dose on Day 1 (qd×1).

[7] = tested on: HT29 (human colon carcinoma) xenograft; conditions: single dose IV
Text: Score=10*(TWd1−TWdn)/TWd1, where
TWd1=tumor weight on day 1
(§6) TWDn=lowest tumor weight on day 10 or later
(§7) Thus the best score for complete regression would be 10.

[8] = tested on: human pancreatic tumor xenograft Panc-1; conditions: Panc-1, best score 10
Experimental: The tumor used for this study was maintained in athymic nude mice. A tumor fragment (1 mm^3) was implanted s.c. into the right flank of each test mouse. Tumors were monitored twice weekly and then daily as their volume approached 200-400 mm^3 with a mean of 250-300 mm^3. On Day 1 of the study, the animals were sorted into treatment groups with tumor sizes of 171.5-320.0 mm^3 and group mean tumor sizes of 212.6-216.0 mm^3. Tumor size, in mm^3, was calculated from the following formula:
[formula] where w=width and l=length in mm of the tumor. Tumor weight was estimated with the assumption that 1 mg is equivalent to 1 mm^3 of tumor volume. […] All treatments were administered orally, once on Day 1 (qd×1). […] In all groups, the dosing volume of 0.6 mL/20 g mouse was scaled to the body weight of each animal. Each animal was euthanized when its neoplasm reached the predetermined endpoint size (1200 mm^3). The time to endpoint (TTE) for each mouse was calculated by the following equation:
as §4
[formula] where: • T=median TTE for a treatment group and • C=median TTE for control Group 1.
as §5
With respect to toxicity, the animals were weighed daily on Days 1-5, then twice weekly until the completion of the study. The mice were examined frequently for overt signs of any adverse, drug-related side effects. Acceptable toxicity for the maximum tolerated dose (MTD) of a cancer drug in mice is defined by the NCl as a group mean body-weight (BW) loss of less than 20% during the test, and not more than one toxic death among ten treated animals. The log rank test was employed to analyze the significance of the difference between the TTE values of a drug-treated group and the vehicle-treated control group. The log rank test analyzes the data for all animals except the NTR deaths. The two-tailed statistical analyses were conducted at P=0.05. The group median tumor growth curves show the median tumor volume (MTV) as a function of time. When an animal exited the study due to tumor size or TR death, the final tumor volume recorded for the animal was included with the data used to calculate the median volume at subsequent time points.

[9] = tested on: HT29 (human colon carcinoma) xenograft; conditions: HT29, best score 10
Text: Score=10*(TWd1−TWdn)/TWd1, where
TWd1=tumor weight on day 1
as §6, §7

[10] = Homo sapiens, HCT-116, 72 h drug incubation

Row | Structure (SMILES) | IC50 ([1]; 72 h drug incubation) | IC50 ([2]; 72 h drug incubation) | Rat tox score IV (Sprague-Dawley rats [3]; scale 0 to 10) | Rat tox score PO (Sprague-Dawley rats [4]; scale 0 to 10) | further results
1 | CCOC(=O)NC(c1ccco1)C(O)C(=O)OC1CC2(O)C(OC(=O)c3ccccc3)C3C4(OC(C)=O)COC4CC(O)C3(C)C(=O)C(OC(=O)C3CC3)C(=C1C)C2(C)C (stereo not drawn) [Compound 3677] | 0.3 nM | 18.6 nM |  |  | 
2 | CC(=O)OC12COC1CC(O)C1(C)C(=O)C(OC(=O)C3CC3)C3=C(C)C(OC(=O)C(O)C(NC(=O)OC(C)(C)C)c4ccoc4)CC(O)(C(OC(=O)c4ccccc4)C21)C3(C)C (stereo not drawn) [Compound 2781, reference compound] | 0.18 nM | 1.91 nM | 1 | 0 | 
3 | CC(=O)O[C@@]12CO[C@@H]1C[C@H](O)[C@@]1(C)C(=O)[C@H](O)C3=C(C)[C@@H](OC(=O)[C@H](O)[C@@H](NC(=O)OC(C)(C)C)c4ccccc4)C[C@@](O)([C@@H](OC(=O)c4ccccc4)[C@H]21)C3(C)C [docetaxel] | 0.6 nM | 6.7 nM |  |  | IC50 [5]: 9.1 nM
4 | CC(=O)OC12COC1CC(O)C1(C)C(=O)C(OC(=O)C3CC3)C3=C(C)C(OC(=O)C(O)C(NC(=O)OC(C)(C)C)c4cccs4)CC(O)(C(OC(=O)c4ccccc4)C21)C3(C)C (stereo not drawn) [Compound 0854, reference compound] | 0.05 nM | 0.09 nM | 1 | 0 | 
5 | CC(=O)OC12COC1CC(O)C1(C)C(=O)C(OC(=O)C3CC3)C3=C(C)C(OC(=O)C(O)C(NC(=O)OCC(C)C)c4ccco4)CC(O)(C(OC(=O)c4ccccc4)C21)C3(C)C (stereo not drawn) [Compound 3102, reference compound] | 0.33 nM | 1.49 nM | 6 | 6 | Efficacy Score = 10*(TWd1−TWdn)/TWd1 ([6]; Dose 60, best score 10): 2.6; Efficacy Score = 10*(TWd1−TWdn)/TWd1 ([6]; Dose 120, best score 10): 5.3; Efficacy Score = 10*(TWd1−TWdn)/TWd1 ([7]; Dose 60, best score 10): 1.3; Efficacy Score = 10*(TWd1−TWdn)/TWd1 ([7]; Dose 120, best score 10): 5.3
6 | CC(=O)OC12COC1CC(O)C1(C)C(=O)C(OC(=O)C3CC3)C3=C(C)C(OC(=O)C(O)C(NC(=O)OC(C)(C)C)c4ccncc4)CC(O)(C(OC(=O)c4ccccc4)C21)C3(C)C (stereo not drawn) [Compound 2813] | 0.05 nM | 8.22 nM |  |  | 
7 | CC(=O)OC12COC1CC(O)C1(C)C(=O)C(OC(=O)C3CC3)C3=C(C)C(OC(=O)C(O)C(NC(=O)OC(C)(C)C)c4ccco4)CC(O)(C(OC(=O)c4ccccc4)C21)C3(C)C (stereo not drawn) [Compound 0843, reference compound] | 0.24 nM | 0.86 nM | 0 | 0 | 
8 | CC(=O)OC12COC1CC(O)C1(C)C(=O)C(OC(=O)C3CC3)C3=C(C)C(OC(=O)C(O)C(NC(=O)OCC(C)C)c4ccoc4)CC(O)(C(OC(=O)c4ccccc4)C21)C3(C)C (stereo not drawn) [Compound 4665] | 2.13 nM | 28.4 nM |  |  | 
9 | CCOC(=O)NC(c1cccs1)C(O)C(=O)OC1CC2(O)C(OC(=O)c3ccccc3)C3C4(OC(C)=O)COC4CC(O)C3(C)C(=O)C(OC(=O)C3CC3)C(=C1C)C2(C)C (stereo not drawn) [Compound 4051] | 0.3 nM | 1.62 nM |  | 5 | 
10 | CC(=O)O[C@H]1C(=O)[C@@]2(C)[C@H]([C@H](OC(=O)c3ccccc3)[C@]3(O)C[C@H](OC(=O)[C@H](O)[C@@H](NC(=O)c4ccccc4)c4ccccc4)C(C)=C1C3(C)C)[C@]1(OC(C)=O)CO[C@@H]1C[C@@H]2O [paclitaxel] |  |  |  |  | IC50 [1, 10]: 2.1 nM; IC50 [2, 10]: 20 nM; IC50 ([5]; Homo sapiens, DLD-1): 10.1 nM
11 | CC(=O)OC12COC1CC(O)C1(C)C(=O)C(OC(=O)C3CC3)C3=C(C)C(OC(=O)C(O)C(NC(=O)OC(C)C)c4ccco4)CC(O)(C(OC(=O)c4ccccc4)C21)C3(C)C (stereo not drawn) [Compound 3853, reference compound] | 0.08 nM | 0.99 nM | 1 | 1 | 
12 | CC(=O)OC12COC1CC(O)C1(C)C(=O)C(OC(=O)C3CC3)C3=C(C)C(OC(=O)C(O)C(NC(=O)OCC(C)C)c4ccsc4)CC(O)(C(OC(=O)c4ccccc4)C21)C3(C)C (stereo not drawn) [Compound 5011] | 2.99 nM | 8.47 nM |  |  | 
13 | CC(=O)OC12COC1CC(O)C1(C)C(=O)C(OC(=O)C3CC3)C3=C(C)C(OC(=O)C(O)C(NC(=O)OCC(C)C)c4cccs4)CC(O)(C(OC(=O)c4ccccc4)C21)C3(C)C (stereo not drawn) [Compound 3129] | 1.53 nM | 2.88 nM |  |  | 
14 | CCCC(=O)NC(c1ccco1)C(O)C(=O)OC1CC2(O)C(OC(=O)c3ccccc3)C3C4(OC(C)=O)COC4CC(O)C3(C)C(=O)C(OC(=O)C3CC3)C(=C1C)C2(C)C (stereo not drawn) [Compound 4062] | 0.59 nM | 7.64 nM |  |  | 
15 | CC(=O)OC12COC1CC(O)C1(C)C(=O)C(OC(=O)C3CC3)C3=C(C)C(OC(=O)C(O)C(NC(=O)OC(C)(C)C)c4ccsc4)CC(O)(C(OC(=O)c4ccccc4)C21)C3(C)C (stereo not drawn) [Compound 2794] | 0.28 nM | 2.03 nM |  |  | 
16 | CC(=O)OC12COC1CC(O)C1(C)C(=O)C(OC(=O)C3CC3)C3=C(C)C(OC(=O)C(O)C(NC(=O)OC(C)C)c4cccs4)CC(O)(C(OC(=O)c4ccccc4)C21)C3(C)C (stereo not drawn) [Compound 3071, reference compound] | 0.17 nM | 1.51 nM | 5 | 4 | Tox Score, Dose 3 mg (Sprague-Dawley rats [3]; dose 3 mg, scale 0 to 10): 7.7; Tox Score, Dose 9 mg (Sprague-Dawley rats [3]; dose 9 mg, scale 0 to 10): 6; Tox Score, Dose 12 mg (Sprague-Dawley rats [3]; dose 12 mg, scale 0 to 10): 3.2; Tox Score, Weighted Avg (Sprague-Dawley rats [3]; Wt Avg = (Σ(dose × grp score))/24): 4.8; Tox Score, Average (Sprague-Dawley rats [3]; average of 3 dose groups): 5.6; Tox Score, Dose 15 mg (Sprague-Dawley rats [4]; Oral, dose 15 mg, scale 0 to 10): 6.2; Tox Score, Dose 30 mg (Sprague-Dawley rats [4]; Oral, dose 30 mg, scale 0 to 10): 5.1; Tox Score, Dose 40 mg (Sprague-Dawley rats [4]; Oral, dose 40 mg, scale 0 to 10): 1.5; Tox Score, Average (Sprague-Dawley rats [4]; Oral, average of 3 dose groups): 4.3; Tox Score, Weighted Avg (Sprague-Dawley rats [4]; Oral, weighted by dose): 3.6; Efficacy Score = 10*(TWd1−TWdn)/TWd1 ([8]; single dose oral 60 mg/kg): 5.8; Efficacy Score = 10*(TWd1−TWdn)/TWd1 ([8]; single dose oral 120 mg/kg): 7.3; Efficacy Score = 10*(TWd1−TWdn)/TWd1 ([9]; single dose oral 60 mg/kg): 6.3; Efficacy Score = 10*(TWd1−TWdn)/TWd1 ([9]; single dose oral 120 mg/kg): 7.5
17 | CC(=O)OC12COC1CC(O)C1(C)C(=O)C(OC(=O)C3CC3)C3=C(C)C(OC(=O)C(O)C(NC(=O)OC(C)(C)C)c4ccccn4)CC(O)(C(OC(=O)c4ccccc4)C21)C3(C)C (stereo not drawn) [Compound 2802] | 0.3 nM | 3.32 nM |  |  | 
18 | CCCC(=O)NC(c1cccs1)C(O)C(=O)OC1CC2(O)C(OC(=O)c3ccccc3)C3C4(OC(C)=O)COC4CC(O)C3(C)C(=O)C(OC(=O)C3CC3)C(=C1C)C2(C)C (stereo not drawn) [Compound 3132] | 0.37 nM | 5.33 nM |  |  | 
